Experimental findings from PubChem BioAssay (NCI) are described below.

Common to all, as to experiment: NCI anticancer screen, dose series, 48 h
In assay [1] the test system is HCT-116 colon.
For assay [2], the system named is UACC-257 melanoma.
In assay [3] the test system is U251 CNS.
The subject of assay [4] is M14 melanoma.
In assay [5] the test system is MOLT-4 leukemia.
Assay [6] relates to SNB-75 CNS.
Assay [7] relates to NCI/ADR-RES ovarian.
Assay [8] relates to SF-539 CNS.
The test system of assay [9] is HL-60(TB) leukemia.
Assay [10] relates to HOP-62 NSCLC.

Structures are written as SMILES.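 These data come from cells grown in 96-well plates and exposed to compound for 48 hours at five concentrations. At the GI50, growth is halved. TGI denotes the concentration required for complete inhibition of growth.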

Turning to `COc1ccc(N=C2C(=S)N(c3ccc(OC)cc3)/C(=N/S(=O)(=O)c3ccccc3)N2c2ccccc2)cc1`, the TGI in [1] was 17.7 µM; in assay [2], 26.6 µM; in assay [3], 28.8 µM; in assay [4] it was 12.2 µM; in [5] it was over 100 µM; in assay [6], 35.1 µM. Further, the TGI was over 71.4 µM in assay [7], 25.1 µM in [8], over 100 µM in [9] and over 57 µM in assay [10].
As for `CC1=C[C@@H](C)C[C@]2(C)CC[C@H](O2)[C@]23CC[C@](C(=O)O)(C[C@H](O2)[C@@H]2O[C@@](C)(CC2=O)[C@@H](O)[C@H]2CC[C@@]4(CCC[C@@H](O4)[C@H](C)C(=O)O[C@H]4C[C@H]([C@]5(O)OCC[C@H](C)[C@@H]5O)O[C@H]4C=C1)O2)O3`, the TGI in assay [1] was over 10 µM; in [2] it was over 10 µM; in assay [3] it was over 10 µM; in assay [4] it was over 10 µM; in assay [5] it was over 10 µM; in assay [6] it was over 6.85 µM. Besides, the TGI in assay [7], in assay [8], in assay [9] and in assay [10] was over 10 µM in each case.
In the case of `O=C(CNCc1ccccc1)Oc1c(Cl)c(Cl)c(Cl)c(Cl)c1Cl`, the TGI in assay [1] was over 100 µM; in assay [2] it was 54.8 µM; in assay [3], 70.5 µM; in [4], over 100 µM; in [5], 50.6 µM; in [6] it was over 100 µM. In addition, the TGI in assay [7] is over 100 µM; in assay [8], 95.6 µM; in assay [9], 52.4 µM; in [10] it was over 100 µM.
As for `COC(=O)C1OC(O[C@H]2CC[C@]3(C)[C@H]4CC=C5[C@@H]6CC(C)(C)CC[C@]6(C(=O)OC6OCC(O)C(O)C6OC6OC(C)C(OC7OCC(OC8OCC(O)C(O)C8O)C(O)C7O)C(O)C6O)[C@H](O)C[C@@]5(C)[C@]4(C)CC[C@H]3C2(C)C)C(O)C(O)C1O` (stereo not given in full), the TGI in assay [1] is 12.9 µM; in [2], 13.1 µM; in assay [3] it was 18.2 µM; in [4], 3.56 µM; in assay [5], over 100 µM; in assay [6], 11.3 µM. The TGI in assay [7] is 21.1 µM; in assay [8] it was over 100 µM; in assay [9] it was over 26.9 µM; in [10], 13 µM.
`COc1cc(C=C2C(=O)NC(=S)NC2=O)cc(OC)c1OC`: the TGI in [1], in assay [2], in [3], in assay [4], in assay [5] and in assay [6] was over 100 µM throughout. In addition, the TGI in [7], in assay [8], in assay [9] and in assay [10] was over 100 µM throughout.
Consider `O=C1CC(Sc2nc3ccc(I)cc3c(=O)n2Cc2ccccc2)C(=O)NN1` (stereo not given), for which the TGI in assay [1] came out at 29.1 µM; in assay [2], 35.3 µM; in [3] it was 29.4 µM; in [4], 39.8 µM; in [5], 42.6 µM; in assay [6], 24.5 µM. Moreover, the TGI in assay [7] was 52.1 µM; in assay [8] it was 35.5 µM; in [9], 38.4 µM; in assay [10], 35.1 µM.
For the molecule `Cn1ccnc1Sc1ccc(C=Nc2ccc3nc(SCC(=O)NC4CCCCC4)sc3c2)cc1[N+](=O)[O-]`, the TGI in assay [1] was over 100 µM; in [2], over 100 µM; in assay [3], 33.9 µM; in [4], over 100 µM; in assay [5], over 100 µM; in [6], 8.84 µM. The TGI in assay [7] was over 100 µM; in assay [8], 22.3 µM; in assay [9], over 100 µM; in assay [10], over 100 µM.
For the molecule `COC(=O)c1cc(C)ccc1CC(Cc1ccc(C)cc1)C(=O)OC` (stereo not given), the TGI in assay [1] was over 100 µM; in assay [2], over 100 µM; in assay [3], over 100 µM; in [4] it was over 100 µM; in assay [5], over 49.5 µM; in assay [6] it was over 90.7 µM. Moreover, the TGI is over 100 µM in assay [7], over 100 µM in assay [8], over 29.1 µM in [9] and over 100 µM in assay [10].
`Cc1ccc(S(=O)(=O)NC(=O)NNc2ccc(F)cc2)cc1`: the TGI was over 100 µM in assay [1]; over 100 µM in assay [2]; over 100 µM in [3]; over 100 µM in [4]; over 100 µM in assay [5]; over 75.8 µM in [6]. Further, the TGI in assay [7], in assay [8], in assay [9] and in [10] was over 100 µM in each case.
As for `O=C(O)c1ccc2c(c1)CC1(C2)Cc2cc3c(cc2C1=O)CCC3` (stereo not given), the TGI in assay [1], in assay [2], in assay [3], in assay [4], in [5] and in assay [6] was over 100 µM throughout. For the same molecule, the TGI in assay [7], in assay [8], in assay [9] and in assay [10] was over 100 µM in each case.
Turning to `O=C(Nc1ccc(-n2cc(-c3ccncc3)c(-c3ccc(O)c(Cl)c3)n2)cc1)Nc1cccc(Cl)c1Cl`, the GI50 was 3.26 µM in assay [1]; 18.6 µM in [2]; 2.54 µM in assay [3]; 3.16 µM in assay [4]; 3.7 µM in [5]; 5.51 µM in [6]. The GI50 in [7] was over 32.5 µM; in [8], 2.04 µM; in assay [9] it was 7.49 µM; in [10] it was 10.6 µM. In addition, the TGI in assay [1] is 21.6 µM; in [2] it was over 32.5 µM; in assay [3] it was 25 µM; in assay [4] it was over 32.5 µM; in assay [5] it was over 32.5 µM; in assay [6] it was over 32.5 µM. The TGI was over 32.5 µM in assay [7], 9.27 µM in assay [8], over 32.5 µM in [9] and over 32.5 µM in [10].
Regarding `COc1ccc(N=Nc2c3c(c(O)c4ccccc24)CCC(C)(C)O3)cc1`, the TGI was 28.9 µM in assay [1]; 37.5 µM in assay [2]; 37.9 µM in assay [3]; 39.3 µM in [4]; over 100 µM in assay [5]; 52.9 µM in [6]. Further, the TGI in assay [7] is over 100 µM; in assay [8] it was 62.3 µM; in [9], 50.1 µM; in assay [10] it was 52.9 µM.
